Reference: patent US20120258967A1, “PI3 KINASE INHIBITORS AND USES THEREOF” (AVILA THERAPEUTICS, INC., priority 2011, published 2012)

What follows are molecules tested against T1, PI3Kα (Homo sapiens, UniProt P42336) (assay: Mass spectrometry for PI3K (covalent modification of intact protein, MALDI)). Conditions: not given.
T1 construct: purchased Millipore 14-602
Type: binding
Description: Mass Spectrometry for PI3K
Intact PI3Kα (Millipore, 14-602) was incubated for 1 hr at a 10-fold excess of I-11 to protein. Aliquots (5 μl) of the samples were diluted with 15 μl of 0.2% TFA prior to micro C4 ZipTipping directly onto the MALDI target using Sinapinic acid as the desorption matrix (10 mg/mL in 0.1% TFA:Acetonitrile 50:50). […] Other compounds that modify PI3Kα >50% after 1 hr include I-1, I-2, I-12, I-17, and I-19.

T1 sequence (P42336 whole entry): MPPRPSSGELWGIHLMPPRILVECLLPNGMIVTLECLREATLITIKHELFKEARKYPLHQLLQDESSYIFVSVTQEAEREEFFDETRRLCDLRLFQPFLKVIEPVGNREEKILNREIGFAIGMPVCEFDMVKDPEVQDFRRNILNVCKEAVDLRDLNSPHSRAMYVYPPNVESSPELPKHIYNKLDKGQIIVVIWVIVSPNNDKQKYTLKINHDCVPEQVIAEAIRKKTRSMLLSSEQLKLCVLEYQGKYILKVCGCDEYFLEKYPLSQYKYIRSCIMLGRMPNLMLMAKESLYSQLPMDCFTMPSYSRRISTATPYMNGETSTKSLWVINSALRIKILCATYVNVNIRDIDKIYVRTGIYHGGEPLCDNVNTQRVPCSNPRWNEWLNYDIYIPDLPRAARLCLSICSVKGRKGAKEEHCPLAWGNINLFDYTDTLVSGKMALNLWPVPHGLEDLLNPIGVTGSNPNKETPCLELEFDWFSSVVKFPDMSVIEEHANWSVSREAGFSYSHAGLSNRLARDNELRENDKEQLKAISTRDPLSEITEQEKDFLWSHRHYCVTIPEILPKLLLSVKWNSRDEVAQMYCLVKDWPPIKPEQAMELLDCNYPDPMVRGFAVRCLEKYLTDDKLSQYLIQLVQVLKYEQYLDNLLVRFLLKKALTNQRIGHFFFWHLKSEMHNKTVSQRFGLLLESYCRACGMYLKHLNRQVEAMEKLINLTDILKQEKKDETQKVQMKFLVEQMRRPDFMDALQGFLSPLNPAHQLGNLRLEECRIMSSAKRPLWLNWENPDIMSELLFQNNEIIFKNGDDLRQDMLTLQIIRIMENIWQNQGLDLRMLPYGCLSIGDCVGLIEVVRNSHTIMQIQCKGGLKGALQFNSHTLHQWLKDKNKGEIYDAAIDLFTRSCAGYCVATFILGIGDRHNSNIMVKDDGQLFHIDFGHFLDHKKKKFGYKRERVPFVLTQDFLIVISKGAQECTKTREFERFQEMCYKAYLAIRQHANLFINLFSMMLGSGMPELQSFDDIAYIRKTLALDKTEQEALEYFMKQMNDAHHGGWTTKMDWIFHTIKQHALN
T1 sequence (P27986 whole entry partner): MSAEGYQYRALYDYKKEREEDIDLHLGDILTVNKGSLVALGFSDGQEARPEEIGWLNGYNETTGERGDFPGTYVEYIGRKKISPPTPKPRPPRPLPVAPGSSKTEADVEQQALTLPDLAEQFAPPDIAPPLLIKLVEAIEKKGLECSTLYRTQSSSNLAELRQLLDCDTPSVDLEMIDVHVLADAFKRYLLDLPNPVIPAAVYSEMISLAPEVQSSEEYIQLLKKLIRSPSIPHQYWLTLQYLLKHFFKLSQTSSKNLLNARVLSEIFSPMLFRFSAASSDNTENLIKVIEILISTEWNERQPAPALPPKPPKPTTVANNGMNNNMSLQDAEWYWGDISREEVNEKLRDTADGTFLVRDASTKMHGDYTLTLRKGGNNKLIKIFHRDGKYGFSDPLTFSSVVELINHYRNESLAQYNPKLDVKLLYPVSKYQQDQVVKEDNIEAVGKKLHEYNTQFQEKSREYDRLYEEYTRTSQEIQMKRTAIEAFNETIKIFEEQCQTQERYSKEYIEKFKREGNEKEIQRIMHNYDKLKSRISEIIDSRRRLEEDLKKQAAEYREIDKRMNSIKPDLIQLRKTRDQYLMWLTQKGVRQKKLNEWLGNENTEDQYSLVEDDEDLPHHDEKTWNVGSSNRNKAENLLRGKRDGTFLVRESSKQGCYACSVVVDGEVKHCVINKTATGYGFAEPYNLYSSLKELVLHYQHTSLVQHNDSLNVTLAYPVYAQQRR

In the case of Nc1ncc(-c2cc(N3CCN(C(=O)Cc4ccc(NC(=O)/C=C(\C5CC5)C(F)(F)F)cc4)CC3)cc(N3CCOCC3)n2)cn1 [I-11], the “covalent modification of PI3Kα by MS analysis (FIG. 1)” value is reported as “confirming covalent modification”.

Same assay, conditions: intact PI3Kα incubated 1 hr, 10-fold excess of compound to protein

In the case of Nc1ncc(-c2cc(N3CCN(C(=O)Cc4ccc(NC(=O)/C=C(\C5CC5)C(F)(F)F)cc4)CC3)cc(N3CCOCC3)n2)cn1 [I-11], the “modification of PI3Kα” value is reported as 87%.

Same assay, conditions: intact PI3Kα incubated 1 hr, 10-fold excess of compound, MALDI centroid mass

Nc1ncc(-c2cc(N3CCN(C(=O)Cc4ccc(NC(=O)/C=C(\C5CC5)C(F)(F)F)cc4)CC3)cc(N3CCOCC3)n2)cn1 [I-11] was tested, and the “mass shift of PI3K after incubation with compound” value was 555 Da.

What follows are molecules tested against T2, PI3Kα (p110α/p85α) (Homo sapiens, UniProt P42336) (assay: HTRF assay, potency against active PI3Kα). Conditions: [ATP]=50 μM, read-out: PI3Kα Inhibition.
T2 construct: purchased BPS Bioscience or Millipore
T2 sequence (P42336 whole entry): as the sequence (P42336 whole entry) above
T2 sequence (P27986 whole entry partner): as the sequence (P27986 whole entry partner) above
Type: biochemical
Description: Compounds of the present invention are assayed as inhibitors of PI3 kinases using the following general protocol.
Homogeneous Time Resolved Fluorescence (HTRF) Assay Protocol for Potency Assessment Against the Active Forms of PI3Kα, PI3Kβ, and PI3Kγ
The protocol below describes an end-point, competition-binding HTRF assay used to measure inherent potency of test compounds against active PI3Kα (p110α/p85α), PI3Kβ (p110β/p85α), and PI3Kγ (p120γ) enzymes. The mechanics of the assay platform are best described by the vendor (Millipore, Billerica, Mass.) on their website at the following URL: www.millipore.com/coa/tech1/74jt4z.
Briefly, Stop solution (Stop A, #33-007 and Stop B, #33-009; 3:1 ratio) and Detection Mix (from DMC, #33-015 with DMA, #33-011 and DMB, #33-013; 18:1:1 ratio) were prepared as recommended by the manufacturer about 2 hrs prior to use. Additionally, 1× reaction buffer (from 4× buffer stock #33-003), 1.4× stocks of PI3Kα, PI3Kβ, and PI3Kγ enzymes from BPS Bioscience (San Diego, Calif.) or Millipore (Billerica, Mass.) with di-C8-PIP2 lipid substrate (#33-005), and a 4×ATP solution (#A7699 Sigma/Aldrich; St. Louis, Mo.) were prepared in 1× reaction buffer. 15 μL of PI3K enzymes and lipid substrate mix were pre-incubated in a Corning (#3573) 384-well, black, non-treated microtiter plate (Corning, N.Y.) for 30 min at 25° C. with a 0.5 μL volume of 50% DMSO and serially diluted compounds prepared in 50% DMSO. Lipid kinase reactions were started with the addition of 5 μL of ATP solution, mixed for 15 sec on a rotary plate shaker and incubated for 30-60 minutes at 25° C. Next, reactions were stopped with a 5 μL addition of Stop solution immediately followed by a 5 μL volume of Detection Mix. Stopped reactions were equilibrated for 1 and 18 hrs at room temperature and read in a Synergy^4 plate reader from BioTek (Winooski, Vt.) at λex 330-80/λem 620-35 and λem 665-7.5. At the conclusion of each assay, the HTRF ratio from fluorescence emission values for each well was calculated and % Inhibition determined from averaged controls wells (+/−PI3K enzyme). % Inhibition values for each compound were then plotted against inhibitor concentration to estimate IC50 from log [Inhibitor]vs Response, Variable Slope model in GraphPad Prism from GraphPad Software (San Diego, Calif.).
[Reagent] used in optimized protocol:
(ATP KMapp for both enzymes was estimated to be 40-70 μM)

CC(C)=CC(=O)CCC(=O)N1CCN(c2ccc(-c3cc(-c4cnc(N)nc4)nc(N4CCOCC4)c3)cc2)CC1 [I-1, 1-(4-(4-(2-(2-aminopyrimidin-5-yl)-6-morpholinopyridin-4-yl)phenyl)piperazin-1-yl)-6-methylhept-5-ene-1,4-dione] and C/C=C/C(=O)Nc1ccc(CC(=O)N2CCN(c3cc(-c4cnc(N)nc4)nc(N4CCOCC4)c3)CC2)cc1 [I-10] fall in the same range of IC50: 100 to 1000 nM for the first, 100 to 1000 nM for the second.

Compared with CC(C)=CC(=O)CCC(=O)Nc1ccc(C#Cc2cc(-c3cnc(N)nc3)nc(N3CCOCC3)c2)cc1 [I-2, N-(4-((2-(2-aminopyrimidin-5-yl)-6-morpholinopyridin-4-yl)ethynyl)phenyl)-6-methyl-4-oxohept-5-enamide], CC(C)/C(=C\C(=O)Nc1ccc(CC(=O)N2CC=C(c3cc(-c4cnc(N)nc4)nc(N4CCOCC4)c3)CC2)cc1)C(F)(F)F [I-8] is higher in IC50: 10 to 100 nM for the first, 100 to 1000 nM for the second.

C/C=C/C(=O)Nc1ccc(CC(=O)N2CC=C(c3cc(-c4cnc(N)nc4)nc(N4CCOCC4)c3)CC2)cc1 [I-3] and C/C(=C\C(=O)Nc1ccc(CC(=O)N2CC=C(c3cc(-c4cnc(N)nc4)nc(N4CCOCC4)c3)CC2)cc1)C(F)(F)F [I-6] fall in the same range of IC50: 100 to 1000 nM for the first, 100 to 1000 nM for the second.

First: Nc1ncc(-c2cc(C3=CCN(C(=O)Cc4ccc(NC(=O)/C=C(\C5CC5)C(F)(F)F)cc4)CC3)cc(N3CCOCC3)n2)cn1 [I-4]
Second: C/C(=C/C(=O)Nc1ccc(CC(=O)N2CC=C(c3cc(-c4cnc(N)nc4)nc(N4CCOCC4)c3)CC2)cc1)C(F)(F)F [I-7]
The IC50 of the first is lower: 10 to 100 nM for the first, 100 to 1000 nM for the second.

Nc1ncc(-c2cc(C3=CCN(C(=O)Cc4ccc(NC(=O)/C=C(\c5ccccc5)C(F)(F)F)cc4)CC3)cc(N3CCOCC3)n2)cn1 [I-5] and Nc1ncc(-c2cc(N3CCN(C(=O)Cc4ccc(NC(=O)/C=C(\c5ccccc5)C(F)(F)F)cc4)CC3)cc(N3CCOCC3)n2)cn1 [I-12] fall in the same range of IC50: 10 to 100 nM for the first, 10 to 100 nM for the second.

Compared with CC(C)/C(=C/C(=O)Nc1ccc(CC(=O)N2CC=C(c3cc(-c4cnc(N)nc4)nc(N4CCOCC4)c3)CC2)cc1)C(F)(F)F [I-9], CC(C)/C(=C\C(=O)Nc1ccc(CC(=O)N2CCN(c3cc(-c4cnc(N)nc4)nc(N4CCOCC4)c3)CC2)cc1)C(F)(F)F [I-15] is higher in IC50: 10 to 100 nM for the first, 100 to 1000 nM for the second. The first is the more potent here.

Compared with Nc1ncc(-c2cc(N3CCN(C(=O)Cc4ccc(NC(=O)/C=C(\C5CC5)C(F)(F)F)cc4)CC3)cc(N3CCOCC3)n2)cn1 [I-11], C/C(=C\C(=O)Nc1ccc(CC(=O)N2CCN(c3cc(-c4cnc(N)nc4)nc(N4CCOCC4)c3)CC2)cc1)C(F)(F)F [I-13] is higher in IC50: 10 to 100 nM for the first, 100 to 1000 nM for the second.

Compared with C/C(=C/C(=O)Nc1ccc(CC(=O)N2CCN(c3cc(-c4cnc(N)nc4)nc(N4CCOCC4)c3)CC2)cc1)C(F)(F)F [I-14], CC(C)/C(=C/C(=O)Nc1ccc(CC(=O)N2CCN(c3cc(-c4cnc(N)nc4)nc(N4CCOCC4)c3)CC2)cc1)C(F)(F)F [I-16] is lower in IC50: 100 to 1000 nM for the first, 10 to 100 nM for the second.

For C=CC(=O)Nc1ccc2sc(N3CCN(c4cc(-c5cnc(N)nc5)nc(N5CCOCC5)c4)CC3)nc2c1 [I-17], the IC50 was 10 to 100 nM.
